Test results taken from PubChem BioAssay AID248 (DTP/NCI, 2004).
Toxic doses and inconclusive results are not listed. Rule as the data show it: active = T/C of 150% or more; inactive = T/C below 125%.

Tested on: L1210 leukemia ip in BDF1 mice, survival T/C
Test: NCI In Vivo Anticancer Drug Screen. Data for tumor model L1210 Leukemia (intraperitoneal) in B6D2F1 (BDF1) mice
Conditions: endpoint: mean survival time, higher = longer survival
Outline: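 Tumor was transplanted into mice, which were then dosed with test compound or vehicle alone. Survival was recorded for each group, and the treated figure was expressed relative to the control figure.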

[1] = dose: 100.0 mg/kg/injection, schedule: Q01DX009 (ip), vehicle: Klucel (hydroxypropylcellulose) (HPC)
[2] = dose: 100.0 mg/kg/injection, schedule: Q04DX003 (ip), vehicle: Klucel (hydroxypropylcellulose) (HPC)
[3] = dose: 200.0 mg/kg/injection, schedule: Q01DX009 (ip), vehicle: Klucel (hydroxypropylcellulose) (HPC)
[4] = dose: 200.0 mg/kg/injection, schedule: Q04DX003 (ip), vehicle: Klucel (hydroxypropylcellulose) (HPC)
[5] = dose: 100.0 mg/kg/injection, schedule: Q04DX003 (ip), vehicle: saline
[6] = dose: 200.0 mg/kg/injection, schedule: Q04DX003 (ip), vehicle: saline
[7] = dose: 400.0 mg/kg/injection, schedule: Q01DX009 (ip), vehicle: Klucel (hydroxypropylcellulose) (HPC)
[8] = dose: 100.0 mg/kg/injection, schedule: Q04DX003 (ip), vehicle: saline with Tween-80
[9] = dose: 6.25 mg/kg/injection, schedule: Q01DX009 (ip), vehicle: saline with Tween-80
[10] = dose: 12.5 mg/kg/injection, schedule: Q01DX009 (ip), vehicle: saline with Tween-80
[11] = dose: 400.0 mg/kg/injection, schedule: Q04DX003 (ip), vehicle: saline
[12] = dose: 200.0 mg/kg/injection, schedule: Q04DX003 (ip), vehicle: saline with Tween-80
[13] = dose: 400.0 mg/kg/injection, schedule: Q04DX003 (ip), vehicle: saline with Tween-80

Measured: T/C

c1ccc(C2CN3CCSC3=N2)cc1 (configuration not stated)
inactive: dose: 0.78 mg/kg/injection, schedule: Q04DX003 (ip), vehicle: saline 102 % of control | dose: 1.56 mg/kg/injection, schedule: Q01DX009 (ip), vehicle: saline 97 % of control | dose: 1.56 mg/kg/injection, schedule: Q04DX003 (ip), vehicle: saline 100 % of control | dose: 3.12 mg/kg/injection, schedule: Q01DX009 (ip), vehicle: saline 100 % of control | dose: 3.12 mg/kg/injection, schedule: Q04DX003 (ip), vehicle: saline 98 % of control | dose: 6.25 mg/kg/injection, schedule: Q01DX009 (ip), vehicle: saline 102 % of control | dose: 6.25 mg/kg/injection, schedule: Q04DX003 (ip), vehicle: saline 104 % of control | dose: 12.5 mg/kg/injection, schedule: Q01DX009 (ip), vehicle: saline 94 % of control | dose: 12.5 mg/kg/injection, schedule: Q04DX003 (ip), vehicle: saline 107 % of control | dose: 25.0 mg/kg/injection, schedule: Q01DX009 (ip), vehicle: saline 105 % of control | dose: 25.0 mg/kg/injection, schedule: Q04DX003 (ip), vehicle: saline 114 % of control

CC(C)N(C(=O)COc1ccc(Cl)cc1)c1ccccc1
inactive: dose: 50.0 mg/kg/injection, schedule: Q01DX009 (ip), vehicle: Klucel (hydroxypropylcellulose) (HPC) 103 % of control | [1] 104 % of control | [2] 108 % of control | [3] 92 % of control | [4] 93 % of control

O=C1NC(=O)C([N+](=O)[O-])=C(O)C1=O
inactive: [5] 96 % of control | [6] 101 % of control

C/C=C\c1ccc(OC(=O)Nc2ccc(C(=O)OCC)cc2)c(OC)c1
inactive: [1] 94 % of control | [3] 94 % of control | [7] 89 % of control

O=C1c2c(c(-c3ccccc3)c3ccccc3c2-c2ccccc2)C(=O)C2C(c3ccccc3)c3ccccc3C(c3ccccc3)C12 (configuration not stated)
inactive: dose: 100.0 mg/kg/injection, schedule: Q04DX002 (ip), vehicle: Klucel (hydroxypropylcellulose) (HPC) 113 % of control | dose: 200.0 mg/kg/injection, schedule: Q04DX002 (ip), vehicle: Klucel (hydroxypropylcellulose) (HPC) 106 % of control | dose: 400.0 mg/kg/injection, schedule: Q04DX002 (ip), vehicle: Klucel (hydroxypropylcellulose) (HPC) 98 % of control

NC1=C(Cl)C(=O)c2ccccc2C1=O
inactive: dose: 25.0 mg/kg/injection, schedule: Q04DX003 (ip), vehicle: saline with Tween-80 100 % of control | dose: 50.0 mg/kg/injection, schedule: Q04DX003 (ip), vehicle: saline with Tween-80 101 % of control | [8] 90 % of control

N#CC1(O)C(Cl)(Cl)CCCC1(Cl)Cl
inactive: [9] 91 % of control | [10] 97 % of control | dose: 25.0 mg/kg/injection, schedule: Q01DX009 (ip), vehicle: saline with Tween-80 94 % of control

COc1ccc(C2=CC=C(c3ccccc3)C2)cc1N
inactive: dose: 100.0 mg/kg/injection, schedule: Q01DX001 (ip), vehicle: Klucel (hydroxypropylcellulose) (HPC) 90 % of control | dose: 200.0 mg/kg/injection, schedule: Q01DX001 (ip), vehicle: Klucel (hydroxypropylcellulose) (HPC) 95 % of control | dose: 400.0 mg/kg/injection, schedule: Q01DX001 (ip), vehicle: Klucel (hydroxypropylcellulose) (HPC) 90 % of control

O=C(Nc1cc(S(=O)(=O)O)cc2cc(S(=O)(=O)O)c(N=Nc3ccc([As](=O)(O)O)cc3)c(O)c12)c1ccc([N+](=O)[O-])cc1
inactive: dose: 200.0 mg/kg/injection, schedule: Q04DX003 (ip), vehicle: saline sonified 92 % of control

OCC1C=CCC=C1
inactive: [5] 100 % of control | [6] 98 % of control | [11] 93 % of control

Clc1ccc(C[P+](c2ccccc2)(c2ccccc2)c2ccccc2)c(Cl)c1
inactive: dose: 4.5 mg/kg/injection, schedule: Q01DX009 (ip), vehicle: saline 109 % of control | [9] 100 % of control | dose: 9.0 mg/kg/injection, schedule: Q01DX009 (ip), vehicle: saline 106 % of control | dose: 9.38 mg/kg/injection, schedule: Q01DX001 (ip), vehicle: water 100 % of control | [10] 94 % of control

C/C(=N\N=C(/C)c1ccc([N+](=O)[O-])cc1)c1ccc([N+](=O)[O-])cc1
inactive: dose: 100.0 mg/kg/injection, schedule: Q04DX002 (ip), vehicle: saline with Tween-80 98 % of control | dose: 200.0 mg/kg/injection, schedule: Q04DX002 (ip), vehicle: saline with Tween-80 103 % of control | dose: 400.0 mg/kg/injection, schedule: Q04DX002 (ip), vehicle: saline with Tween-80 103 % of control

O=C1NCCCCN1
inactive: [8] 100 % of control | [12] 100 % of control | [13] 101 % of control

O=C1OC(c2cccc([N+](=O)[O-])c2)=N/C1=C\c1cccc2ccccc12
inactive: [1] 94 % of control | dose: 100.0 mg/kg/injection, schedule: Q04DX002 (ip), vehicle: saline 96 % of control | [3] 105 % of control | dose: 200.0 mg/kg/injection, schedule: Q04DX002 (ip), vehicle: saline 101 % of control | [7] 97 % of control | dose: 400.0 mg/kg/injection, schedule: Q04DX002 (ip), vehicle: saline 94 % of control

CS(=O)(=O)OCCN(CCOS(C)(=O)=O)c1ccccc1
inactive: dose: 100.0 mg/kg/injection, schedule: Q01DX001 (ip), vehicle: other 100 % of control

OCCN(CCO)CN(CO)c1nc(N(CO)CN(CCO)CCO)nc(N(CO)CN(CCO)CCO)n1
inactive: dose: 100.0 mg/kg/injection, schedule: Q01DX009 (ip), vehicle: saline 100 % of control | [5] 101 % of control | dose: 200.0 mg/kg/injection, schedule: Q01DX009 (ip), vehicle: saline 109 % of control | [6] 101 % of control | dose: 400.0 mg/kg/injection, schedule: Q01DX009 (ip), vehicle: saline 109 % of control | [11] 91 % of control

COc1cc2c(cc1I)-c1c(cc(OC)c(OC)c1OC)CC[C@@H]2NC(C)=O
inactive: dose: 17.0 mg/kg/injection, schedule: Q01DX Z (ip), vehicle: carboxymethylcellulose (CMC) 102 % of control | dose: 26.0 mg/kg/injection, schedule: Q01DX Z (ip), vehicle: carboxymethylcellulose (CMC) 108 % of control | dose: 40.0 mg/kg/injection, schedule: Q01DX Z (ip), vehicle: carboxymethylcellulose (CMC) 119 % of control | dose: 49.0 mg/kg/injection, schedule: Q01DX Z (ip), vehicle: carboxymethylcellulose (CMC) 103 % of control | dose: 50.0 mg/kg/injection, schedule: Q01DX009 (ip), vehicle: saline sonified 108 % of control | dose: 60.0 mg/kg/injection, schedule: Q01DX Z (ip), vehicle: carboxymethylcellulose (CMC) 117 % of control | dose: 73.0 mg/kg/injection, schedule: Q01DX Z (ip), vehicle: carboxymethylcellulose (CMC) 103 % of control | dose: 90.0 mg/kg/injection, schedule: Q01DX Z (ip), vehicle: carboxymethylcellulose (CMC) 102 % of control | dose: 100.0 mg/kg/injection, schedule: Q01DX009 (ip), vehicle: saline sonified 106 % of control | [2] 99 % of control | dose: 110.0 mg/kg/injection, schedule: Q01DX Z (ip), vehicle: carboxymethylcellulose (CMC) 103 % of control | dose: 200.0 mg/kg/injection, schedule: Q01DX009 (ip), vehicle: saline sonified 119 % of control | [4] 99 % of control

CSc1nc(N)c(C(N)=O)cc1C#N
inactive: [8] 89 % of control | [12] 89 % of control | [13] 87 % of control
